“Also recorded” adds a separate entry of the source.
Experiments:
[1] = Single dose toxicity study in the rat; assay type: in vivo, Sprague Dawley (SD) rats
Procedure: This study aimed at assessing the toxicity of ^175Lu-PSMA-R2 right after acute intravenous injection of 2 or 4 mg/kg among Sprague Dawley (SD) rats.
Two groups of 30 animals (1:1 male:female ratio) were administered with 2 and 4 mg/kg, respectively. A control group of equal characteristics was treated with the vehicle (Table 5).
Signs of reaction to treatment at all doses were assessed at 30, 120 and 240 min p.i. as well as 24 h later. At Day 2, 10 rats per gender and per group were sacrificed. The remaining 5 animals/gender/group were observed daily over14 days.
Body weight was recorded on the day of treatment group allocation, Day 1 (day of injection), 8 and 15. Food consumption was measured on Day 2 and weekly thereafter. At the end of treatment, urine samples were collected for urinalysis. On Day 2 and 15, blood samples withdrawn at sacrifice were screened for clinical pathologies. After dissection, organs were weighted and tissues were treated for microscopic analyses (over 50 different tissues were analyzed).

[2] = Repeated dose (2 weeks) toxicity and toxicokinetic study in the rat
Procedure: The purpose of this study was to investigate the toxicity of ^175Lu-PSMA-R2 in rats after daily intravenous administration for 2 weeks and recovery from any treatment related effects during a 2-week recovery period (main groups).
The tested doses were 0.13, 0.39 and 1.29 mg/kg/day, that is about 31, 93 and 310 times the PSMA-R2 anticipated human dose.
Each main treatment group consisted of 10 male and 10 female rats. There were additional 5 male and 5 females included to be sacrificed after 2 weeks of recovery in groups 1 and 4. Two satellite groups (low and mid- dose) for toxicokinetics had 9 male and 9 female animals and one group (high dose) included 12 male and 12 female animals. One additional group (control) comprised 3 male and 3 female animals.
In this study, the toxicity and the toxicokinetic profile of ^175Lu-PSMA-R2 were investigated in Sprague Dawley rats after daily intravenous administration for 2 weeks at the dosages of 0.13, 0.39 and 1.29 mg/kg/day.

O=C(O)CCC(NC(=O)NC(CCCCN(Cc1ccc(Br)cc1)C(=O)CCCCCNC(=O)CN1CCN(CC(=O)O)CCN(CC(=O)O)CCN(CC(=O)O)CC1)C(=O)O)C(=O)O.[175Lu] (stereo not shown) [^175Lu-PSMA-R2]
Mortality ([1]; high dose (4 mg/kg), 30 min after dosing, no cause of death established): One death | Clinical signs immediately after dosing ([1]; high dose group, dead animal and 5 other animals): Only decreased activity was noted | Toxicity signs ([1]; single iv 2 and 4 mg/kg): did not induce toxicity signs; also recorded: No signs of toxicity observed | Accumulation after daily administration ([2]; Day 1 to Day 14): No accumulation | Half-life ([2]; both sexes and all dose levels): 24 to 48 min | NOAEL (No Observed Adverse Effect Level) ([2]; daily iv for 2 weeks): 1.29 mg/kg/day | Toxic / treatment-related effects in treated groups compared to controls ([2]; daily iv for 2 weeks): No evidence of treatment-related effects | Bodyweight and food consumption ([2]; rat, in vivo): unaffected by treatment | Clearance, dose dependence ([2]; rat, in vivo): dose-independent | Clinical pathology examination ([2]; rat, in vivo): No findings of toxicological relevance | Daily clinical observation ([2]; rat, in vivo): No signs of toxicological significance | Dose proportionality of exposure ([2]; rat, in vivo): approximately dose proportional | NOAEL as multiple of the foreseen human dose ([2]; rat, in vivo): 310 times | Necropsy, organ weights or histopathological examination ([2]; rat, in vivo): No evidence of treatment-related effects | Ophthalmoscopy examination ([2]; rat, in vivo): No anomalies related to treatment | Toxic / treatment-related effects in treated groups compared to controls ([2]; rat, in vivo, iv): no toxic effects

From patent US20230226227A1, “PROSTATE SPECIFIC MEMBRANE ANTIGEN (PSMA) LIGANDS AND USES THEREOF” (ADVANCED ACCELERATOR APPLICATIONS (ITALY) SRL, priority 2019, published 2023)
